The test system of this experiment is CIRAR: Canada thistle (Cirsium arvense). In words: Post-emergent Test III, herbicidal activity in wheat and barley. The format is in vivo. The conditions noted are these: Table 8, 21 d; for pest or weed control at 35 g/ha / pest or weed control at 70 g/ha: Cirsium arvense, post-emergence, 504 h, post-emergent, read-out: Visual Growth Reduction (%) 21 Days After Application CIRAR; for pest or weed control at 35 g/ha: 35 g ai/ha; for pest or weed control at 70 g/ha: 70 g ai/ha; for GR50 CIRAR: dose for 50 percent growth reduction; for GR50 CIRAR / GR80 CIRAR: probit analysis; for GR80 CIRAR: dose for 80 percent growth reduction. A digest of the protocol:
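Plants at the second to third true-leaf stage, grown in a greenhouse at about 18/17 °C with a 14 h photoperiod, were sprayed post-emergence at 187 L/ha with the high rate and ½× to 1/16× serial dilutions in an acetone/DMSO/crop-oil/surfactant carrier. Injury was rated visually at 21 d on a 0–100% scale, and GR20–GR90 were derived by probit analysis.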

With `Nc1cc(-c2ccc(Br)c(F)c2)nc(C(=O)O)c1Cl` [Compound 110, 4-Amino-6-(4-bromo-3-fluorophenyl)-3-chloropicolinic acid], the pest or weed control at 35 g/ha is 75 to 84%, the pest or weed control at 70 g/ha lay within 75 to 84%, the “GR50 CIRAR” value was determined as 19 g ai/ha and the “GR80 CIRAR” value amounted to 52 g ai/ha.

In the case of `COc1c(N)nc(-c2ccc(Br)c(F)c2)nc1C(=O)O` [Compound 113, 6-Amino-2-(4-bromo-3-fluorophenyl)-5-methoxypyrimidine-4-carboxylic acid], the pest or weed control at 35 g/ha is 75 to 84%, the pest or weed control at 70 g/ha was 85 to 94%, the “GR50 CIRAR” value came to 7 g ai/ha and the “GR80 CIRAR” value is 33 g ai/ha.
